target: T1, SIRT1 (Homo sapiens, UniProt Q96EB6); assay: Fluorescence polarization or mass spectrometry based assay to identify modulators of SIRT1 activity (p53-based peptide deacetylation); assay type: biochemical; settings: activation of SIRT1, Table 4; read-out: ED50 (the source's name);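 further: recombinant His-tagged human SIRT1 deacetylating p53-derived acetylated peptide, detected by fluorescence polarization after trypsin cleavage, signal inversely tracking deacetylase activity, compared against activity without test compound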
T1 sequence (Q96EB6 1-747): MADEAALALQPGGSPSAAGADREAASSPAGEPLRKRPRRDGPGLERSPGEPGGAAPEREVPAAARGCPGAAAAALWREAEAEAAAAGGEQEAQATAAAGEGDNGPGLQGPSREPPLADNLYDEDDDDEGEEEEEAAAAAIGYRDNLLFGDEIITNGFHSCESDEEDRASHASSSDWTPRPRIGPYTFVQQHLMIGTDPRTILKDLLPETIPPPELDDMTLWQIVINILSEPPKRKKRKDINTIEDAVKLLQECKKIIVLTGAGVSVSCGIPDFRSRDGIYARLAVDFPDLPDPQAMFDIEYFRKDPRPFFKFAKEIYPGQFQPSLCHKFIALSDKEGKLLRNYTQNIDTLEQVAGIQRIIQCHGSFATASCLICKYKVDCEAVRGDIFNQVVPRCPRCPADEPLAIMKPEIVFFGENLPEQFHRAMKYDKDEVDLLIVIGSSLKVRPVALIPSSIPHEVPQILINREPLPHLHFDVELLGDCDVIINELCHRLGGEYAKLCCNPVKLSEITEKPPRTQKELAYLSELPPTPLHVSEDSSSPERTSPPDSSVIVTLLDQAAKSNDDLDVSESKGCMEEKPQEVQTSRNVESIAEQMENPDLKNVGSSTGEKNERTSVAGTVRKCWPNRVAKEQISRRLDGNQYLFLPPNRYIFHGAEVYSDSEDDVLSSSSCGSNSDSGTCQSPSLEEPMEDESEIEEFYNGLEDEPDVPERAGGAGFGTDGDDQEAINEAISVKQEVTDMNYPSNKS

SMILES	EC50 [µM]
Cc1ccc2nc(-c3ccco3)cc(C(=O)N3CCN(C)CC3)c2c1 [Compound 33]	> 150
Cc1ccc2nc(-c3ccco3)cc(C(=O)N3CCCCC3)c2c1 [Compound 30]	> 150
Cc1ccc2nc(-c3ccco3)cc(C(=O)NCCCCN3CCN(C)CC3)c2c1 [Compound 17]	> 150
Cc1ccc2nc(-c3cccs3)ccc2c1C(=O)NCCCN1CCCCC1 [Compound 21]	> 150
Cc1ccc2nc(-c3ccco3)ccc2c1C(=O)NCCCN1CCCCC1 [Compound 20]	> 150
Cc1ccc2nc(-c3cccs3)cc(C(=O)NCCN3CCCCC3)c2c1 [Compound 52]	> 150
Cc1ccc2nc(-c3cccs3)cc(C(=O)N3CCN(C)CC3)c2c1 [Compound 49]	> 150
Cc1ccc2nc(-c3ccco3)cc(C(=O)NCCCN3CCN(C)CC3)c2c1 [Compound 47]	> 150
Cc1ccc2nc(-c3ccco3)cc(C(=O)NCCN3CCCCC3)c2c1 [Compound 34]	> 150

The next lines start with the values.

EC50 [µM]	SMILES
< 50	O=C(Nc1ccccc1N1CCOCC1)c1cc(-c2ccco2)nc2ccccc12 [Compound 8]
> 150	O=C(NNC(=O)c1c2ccccc2nc2ccccc12)c1cc(F)cc(F)c1 [Compound 134]
> 150	c1ccc2c(c1)Oc1ccccc1C2n1nnc2ccccc21 [Compound 124]
> 150	Cc1ccc2nc(-c3cccs3)cc(C(=O)N(C)CCN(C)C)c2c1 [Compound 51]
> 150	Cc1ccc(-c2cccc(NC(=O)c3c4ccccc4nc4ccccc34)c2)cc1C [Compound 130]
< 50	COc1cc(C(=O)NNc2c3c(nc4ccccc24)CCCC3)cc(OC)c1OC [Compound 120]
> 150	COc1cc(C(=O)NN(C)c2c3ccccc3nc3ccccc23)cc(OC)c1OC [Compound 154]
> 150	O=C(Nc1ccc(N2CCCCC2)cc1)c1c2ccccc2nc2ccccc12 [Compound 128]
< 50	O=C(NNc1cc(-c2ccccc2)nc2ccccc12)c1ccc(Cl)cc1 [Compound 23]
> 150	O=C(Nc1ccc2c(c1)OCO2)Nc1c2ccccc2nc2ccccc12 [Compound 153]

same assay, conditions: inhibition of SIRT1, Table 5

IC50 [µM]	SMILES
> 150	Cc1ccc2nc(-c3cccs3)cc(C(=O)N3CCOCC3)c2c1 [Compound 172]
> 150	Cc1ccc2nc(-c3ccccc3)cc(C(=O)NCCCN3CCOCC3)c2c1 [Compound 169]

target: T2, human SIRT3 (Homo sapiens, UniProt Q9NTG7); assay: Fluorescence polarization assay to identify modulators of SIRT3 activity (Histone H4-based peptide deacetylation); assay type: biochemical; settings: activation of SIRT3, Table 6; read-out: ED50 (the source's name)
T2 construct: corresponded to amino acid residues 102-399 of human SIRT3 with an N-terminal His-tag; His-tag (N); made in house; host or cells: E. coli
T2 sequence (Q9NTG7 102-399): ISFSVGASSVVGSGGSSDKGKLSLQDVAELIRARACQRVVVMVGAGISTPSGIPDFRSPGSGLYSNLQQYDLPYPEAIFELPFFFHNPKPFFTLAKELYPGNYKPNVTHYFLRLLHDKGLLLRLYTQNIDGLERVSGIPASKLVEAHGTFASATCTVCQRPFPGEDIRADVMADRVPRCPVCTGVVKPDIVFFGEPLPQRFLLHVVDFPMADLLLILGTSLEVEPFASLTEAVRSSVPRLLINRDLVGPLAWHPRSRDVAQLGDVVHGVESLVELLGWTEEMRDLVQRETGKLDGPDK
Text: A fluorescence polarization assay was used to identify modulators of SIRT3 activity. The same assay may be used to identify modulators of any sirtuin protein. The assay utilizes a peptide substrate based on a fragment of Histone H4, a known sirtuin deacetylation target. The substrate contains a peptide having 14 amino acid residues as follows: Biotin-GASSHSK(Ac)VLK(MR121) (SEQ ID NO: 3) wherein K(Ac) is an acetylated lysine residue. The peptide is labeled with the fluorophore MR121 (excitation 635 nm/emission 680 nm) at the C-terminus and biotin at the N-terminus.
The peptide substrate is exposed to a sirtuin protein in the presence of NAD^+ to allow deacetylation of the substrate and render it sensitive to cleavage by trypsin. […] The fluorescence polarization signal observed for the full length peptide substrate bound to streptavidin is higher than the fluorescence polarization signal observed for the released MR121 C-terminal fragment. Therefore, the fluorescence polarization obtained is inversely proportional to the level of deacetylation (e.g., the signal is inversely proportional to the activity of the sirtuin protein). Results are read on a microplate fluorescence polarization reader (Molecular Devices Spectramax MD) with appropriate excitation and emission filters. […]

EC50 [µM]	SMILES
< 50	O=C(Nc1ccccc1N1CCOCC1)c1cc(-c2ccco2)nc2ccccc12 [Compound 8]

— US20090069301A1, “Acridine and Quinoline Derivatives as Sirtuin Modulators” (Sirtris Pharmaceuticals, Inc., priority 2005, published 2009)
